Activity calls are given as the source filed them. The rule behind the calls is not given here.
Tests used:
[1] = target: Glutamate NMDA receptor (Rattus norvegicus) (UniProt P35439+Q00959+Q00960+Q00961+Q62645+Q8VHN2+Q9R1M7); assay: Displacement of [3H]MDL105519 from rat brain NMDA receptor glycine binding site at 100 uM by Packard Topcount scintillation counter
[2] = target: Glutamate NMDA receptor; Grin1/Grin2a (Rattus norvegicus, UniProt P35439+Q00959); assay: Activity at rat NR1/NR2A receptor expressed in Xenopus oocytes assessed as inhibition of glycine-induced electrophysiological response; type: cell-based, Oocyte
Sequence of Glutamate NMDA receptor; Grin1/Grin2a (Q00959 whole entry, other chains not shown): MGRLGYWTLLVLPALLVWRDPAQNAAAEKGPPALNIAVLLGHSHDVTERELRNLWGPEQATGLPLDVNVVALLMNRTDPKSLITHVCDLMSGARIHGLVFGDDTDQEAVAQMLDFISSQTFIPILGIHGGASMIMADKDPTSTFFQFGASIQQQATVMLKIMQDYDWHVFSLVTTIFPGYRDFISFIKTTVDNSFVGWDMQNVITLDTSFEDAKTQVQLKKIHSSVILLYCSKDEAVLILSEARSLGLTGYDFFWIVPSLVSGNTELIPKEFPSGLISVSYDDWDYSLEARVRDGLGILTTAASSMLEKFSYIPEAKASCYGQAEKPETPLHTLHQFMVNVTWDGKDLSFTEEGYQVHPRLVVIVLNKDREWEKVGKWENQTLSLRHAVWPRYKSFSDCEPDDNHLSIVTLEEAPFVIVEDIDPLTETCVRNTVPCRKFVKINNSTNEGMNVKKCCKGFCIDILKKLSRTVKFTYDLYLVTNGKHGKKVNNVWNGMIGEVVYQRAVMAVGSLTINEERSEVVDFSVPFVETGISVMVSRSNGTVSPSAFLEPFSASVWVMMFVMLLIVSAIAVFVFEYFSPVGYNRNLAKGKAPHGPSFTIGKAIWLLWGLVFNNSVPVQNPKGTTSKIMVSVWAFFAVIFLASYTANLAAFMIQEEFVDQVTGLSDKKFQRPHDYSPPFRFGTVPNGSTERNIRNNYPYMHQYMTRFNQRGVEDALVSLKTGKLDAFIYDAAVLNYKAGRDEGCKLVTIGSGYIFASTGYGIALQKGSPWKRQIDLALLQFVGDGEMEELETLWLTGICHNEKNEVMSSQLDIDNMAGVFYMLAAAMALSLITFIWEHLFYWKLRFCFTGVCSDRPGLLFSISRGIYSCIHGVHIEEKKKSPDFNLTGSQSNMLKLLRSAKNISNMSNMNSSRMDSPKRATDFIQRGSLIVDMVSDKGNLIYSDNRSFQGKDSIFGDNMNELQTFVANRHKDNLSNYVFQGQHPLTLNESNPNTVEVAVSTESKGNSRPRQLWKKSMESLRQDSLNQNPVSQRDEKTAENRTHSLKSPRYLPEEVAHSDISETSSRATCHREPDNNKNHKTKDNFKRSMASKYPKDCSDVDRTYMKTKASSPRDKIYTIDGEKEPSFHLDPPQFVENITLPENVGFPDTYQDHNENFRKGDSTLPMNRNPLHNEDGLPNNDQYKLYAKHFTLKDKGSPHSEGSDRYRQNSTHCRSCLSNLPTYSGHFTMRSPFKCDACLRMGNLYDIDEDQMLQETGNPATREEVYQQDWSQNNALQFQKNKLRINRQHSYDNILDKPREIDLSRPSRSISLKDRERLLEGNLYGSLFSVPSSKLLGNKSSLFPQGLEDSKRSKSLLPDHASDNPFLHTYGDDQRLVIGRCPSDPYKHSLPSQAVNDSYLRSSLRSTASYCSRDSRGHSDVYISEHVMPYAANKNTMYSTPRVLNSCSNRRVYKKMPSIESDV

Row | Structure (SMILES) | Activity [1] | IC50 [2] | inhibition [1] | Kd [2]
1 | NCC1CNC(=O)C(=O)N1 (racemic) | inactive |  |  | 
2 | NCCCC(=O)NCC(=O)O |  | 65 µM |  | 
3 | NC[C@@H]1NC(=O)CNC1=O |  | 370 µM | 30% | 50 µM
4 | C[C@H](N)CC(=O)NCC(=O)O |  | 28 µM |  | 

— ChEMBL document CHEMBL1151901, “3-(aminomethyl)piperazine-2,5-dione as a novel NMDA glycine site inhibitor from the chemical universe database GDB” (Bioorg Med Chem Lett, 2009)
